From publication PMC4279406, “Simultaneous targeting of PI3Kδ and a PI3Kδ-dependent MEK1/2-Erk1/2 pathway for therapy in pediatric B-cell acute lymphoblastic leukemia” (Oncotarget, 2014)
Read-outs that look alike come from different tables or passages of the source.

Assays:
Rh30-Myr-p110α cells = test: Akt phosphorylation in isogenic Rh30-Myr-p110 cells (Western blot); type: cell-based; conditions: Homo sapiens, serum-free 12 h, compound 1 h, band intensity, mean of three experiments
Text: (§1) To assess the selectivity of X-370 in the context of an isogenic cellular background, we generated a panel of Rh30 human rhabdomyosarcoma cell lines each of which stably expresses a single myristoylated (Myr)-epitope tagged p110 human class I PI3K catalytic subunit, termed as Rh30-Myr-p110α, Rh30-Myr-p110β, Rh30-Myr-p110γ or Rh30-Myr-p110δ. In these cells, endogenous PI3K is not activated under serum-free culture conditions, whereas the ectopically expressed p110 isoforms are membrane-anchored and constitutively active due to myristoylation at N-terminal. Utilizing this cell panel, isoform-specific PI3K activity can be determined for any given inhibitor[25]. These cells were treated with X-370 and phosphorylated Akt was detected as the readout of PI3K activity. X-370 inhibited phosphorylation of Akt at both Thr308 and Ser473 in a dose-dependent manner in four tested cell lines (Figure 2A). […] Similar property was also observed in CAL-101 (Figure S2).
(§2) Cell lysates were probed with indicated antibodies. The IC50 values were calculated based on relative band intensity measured with ImageQuant™ TL (GE Healthcare Life Sciences, Piscataway, NJ) (B). Data shown are mean values from three independent experiments. (C, D, E, F) X-370 blocked stimuli-triggered PI3Kδ activation. MEF cells and THP-1 were starved in serum-free medium for 12 h or 4 h respectively and X-370 were added for an additional 1 h treatment following stimulation of IGF-1 at 100 ng/ml for MEF cells (C), LPA at 10 μM for MEF cells (D), MCP-1 at 100ng/ml for THP-1 (E) and M-CSF at 50 ng/ml for THP-1 (F). Similar results were derived from 3 independent experiments. TEXT PRINTED IN THE PICTURE: (B) X-370: IC50 (μM) in Rh30-Myr-p110s, Akt pT308, PI3Kα: 0.68; IC50 (μM) in Rh30-Myr-p110s, Akt pT308, PI3Kβ: 0.4; IC50 (μM) in Rh30-Myr-p110s, Akt pT308, PI3Kγ: 0.46; IC50 (μM) in Rh30-Myr-p110s, Akt pT308, PI3Kδ: 0.032; IC50 (μM) in Rh30-Myr-p110s, Akt pS473, PI3Kα: 0.53; IC50 (μM) in Rh30-Myr-p110s, Akt pS473, PI3Kβ: 0.29; IC50 (μM) in Rh30-Myr-p110s, Akt pS473, PI3Kγ: 0.23; IC50 (μM) in Rh30-Myr-p110s, Akt pS473, PI3Kδ: 0.02 DOUBTS OF THE COPYIST ABOUT THIS PICTURE: Panel B prints no substance label in the table itself; the label X-370 is taken from the other panels of the same picture, where it is the only substance printed. […]
(§3) Cells were treated as indicated conditions and then subjected to lysate to perform standard Western blot as described previously1. Briefly, whole-cell lysates and SDS-loading buffer diluted cell fractions were analyzed on SDS-PAGE gels. Transfer to nitrocellulose membranes, nonfat milk blocking, probing with indicated primary antibodies and the corresponding HRP-conjugated second antibodies.
(§4) Chemiluminescence were performed and captured using ImageQuant LAS 4000 (GE healthcare Life Sciences, Piscataway, NJ, USA) and band intensity was measure both with ImageQuant™ TL (GE Healthcare Life Sciences) 2. […]
(§5) (also on this page, place not known: PI3Kδ -dependent MEK1/2 - B -cell previously 1. whole -cell SDS -loading SDS -PAGE HRP -conjugated (G E A B Val828 Trp760 Thr750 Met752 Tyr813 affinity pocket specificity pocket hinge Glu826 CAL-101 X-370) […]
(§6) (1 picture or pasted object on this page, not shown here)

Rh30-Myr-p110γ cells = test: as above; type: cell-based; conditions: Homo sapiens, serum-free 12 h, compound 1 h, band intensity, mean of three experiments
Text: as §1, §2, §3, §4, §5, §6

primary B-ALL cells = test: Phosphorylated Akt and Erk1/2 in primary B-ALL cells (Western blot); type: cell-based, human; conditions: 72 h
Description: Figure 6 X-370-sensitive human primary B-ALL cells contained PI3K-dependent Erk1/2 phosphorylation and combination of AZD6244 and X-370 enhanced inhibitory activity against resistant specimens (A) X-370-sensitive human primary B-ALL cells contained PI3K-dependent Erk1/2 phosphorylation. Primary B-ALL cells were treated with series diluted X-370 for 72 h. Phosphorylation of Akt and Erk1/2 were detected. (B). Combination of AZD6244 and X-370 enhanced inhibitory activity against resistant specimens. X-370 resistant primary B-ALL cells were treated with 1 μM X-370 alone or cocurently with MEK1/2 inhibitor AZD6244 (1 μM) for 72 h and cell viability were tested by CCK-8 assay. Cell viability of each treated group was compared with unpaired t-tests. *: P < 0.05. (C) X-370-resistant primary B-ALL cells were treated with X-370 in the presence of 1 μM AZD6244 or not for 72 h and phosphorylated Akt and Erk1/2 were then detected by Western blot.
Bone marrow was obtained from patients after provision of informed consent using guidelines approved by the Committee on the Use of Human Subjects in Research at Shanghai Jiaotong University or Shanghai Fudan University under a protocol approved by the Review Board. […] Cell viability and phosphorylated Akt and Erk1/2 were then detected.

IC50 (Rh30-Myr-p110α cells; read-out: IC50 (μM) in Rh30-Myr-p110s, Akt pS473, PI3Kα): 0.53 µM | IC50 (Rh30-Myr-p110α cells; read-out: IC50 (μM) in Rh30-Myr-p110s, Akt pT308, PI3Kα): 0.68 µM | IC50 (Rh30-Myr-p110γ cells; read-out: IC50 (μM) in Rh30-Myr-p110s, Akt pS473, PI3Kγ): 0.23 µM | IC50 (Rh30-Myr-p110γ cells; read-out: IC50 (μM) in Rh30-Myr-p110s, Akt pT308, PI3Kγ): 0.46 µM
Structure (SMILES): O=C(N1CCCC1)N1CCC(n2cnc3c(-n4c(C(F)F)nc5ccccc54)nc(N4CCOCC4)nc32)CC1 [X-370]
phosphorylated Erk1/2 (primary B-ALL cells; resistant (IC50>1 μM) samples): remained unaffected | phosphorylated Akt and Erk1/2 (primary B-ALL cells; sensitive (IC50<1 μM) specimens, < 1 μM): dramatically decreased
